ChEMBL document CHEMBL3822364, “Synthesis, characterization and antimicrobial activity of novel Schiff base tethered boronate esters of 1,2-O-isopropylidene-α-d-xylofuranose” (2016)
≈ marks a conversion by molar mass, not a printed value. Calls of active or inactive are those of the source. The rule behind the calls is not given here.

What was measured:
Streptococcus mutans [1] = test: Antibacterial activity against Streptococcus mutans MTCC 497 assessed as zone of inhibition at 100 ug/well measured after 24 hrs by agar well diffusion method; type: functional; settings: MTCC 497, 24 h, read-out: DIZ
Aspergillus fumigatus [2] = test: Antifungal activity against Aspergillus fumigatus MTCC 343 assessed as zone of inhibition at 100 ug/well measured after 48 hrs by agar well diffusion method; type: functional; settings: MTCC 343, 48 h, read-out: DIZ
Staphylococcus aureus [3] = test: Antibacterial activity against Staphylococcus aureus MTCC 3160 assessed as zone of inhibition at 100 ug/well measured after 24 hrs by agar well diffusion method; type: functional; settings: MTCC 3160, 24 h, read-out: DIZ
Klebsiella pneumoniae [4] = test: Antibacterial activity against Klebsiella pneumoniae MTCC 3384 assessed as zone of inhibition at 100 ug/well measured after 24 hrs by agar well diffusion method; type: functional; settings: MTCC 3384, 24 h, read-out: DIZ
Aspergillus fumigatus [5] = test: Antifungal activity against Aspergillus fumigatus MTCC 343 measured after 48 hrs by NCCL protocol based broth dilution method; type: functional
Salmonella paratyphi [6] = test: Antibacterial activity against Salmonella paratyphi measured after 24 hrs by NCCL protocol based broth dilution method; type: functional, Salmonella enterica subsp. enterica serovar Paratyphi A
Staphylococcus aureus [7] = test: Antibacterial activity against Staphylococcus aureus MTCC 3160 measured after 24 hrs by NCCL protocol based broth dilution method; type: functional
Candida albicans [8] = test: Antifungal activity against Candida albicans MTCC 3017 assessed as zone of inhibition at 100 ug/well measured after 48 hrs by agar well diffusion method; type: functional; settings: MTCC 3017, 48 h, read-out: DIZ
Klebsiella pneumoniae [9] = test: Antibacterial activity against Klebsiella pneumoniae MTCC 3384 measured after 24 hrs by NCCL protocol based broth dilution method; type: functional
Micrococcus luteus [10] = test: Antibacterial activity against Micrococcus luteus MTCC 106 measured after 24 hrs by NCCL protocol based broth dilution method; type: functional
Salmonella paratyphi [11] = test: Antibacterial activity against Salmonella paratyphi assessed as zone of inhibition at 100 ug/well measured after 24 hrs by agar well diffusion method; type: functional, Salmonella enterica subsp. enterica serovar Paratyphi A; settings: Salmonella enterica, read-out: DIZ
Micrococcus luteus [12] = test: Antibacterial activity against Micrococcus luteus MTCC 106 assessed as zone of inhibition at 100 ug/well measured after 24 hrs by agar well diffusion method; type: functional; settings: MTCC 106, 24 h, read-out: DIZ
Streptococcus mutans [13] = test: Antibacterial activity against Streptococcus mutans MTCC 497 measured after 24 hrs by NCCL protocol based broth dilution method; type: functional
Salmonella typhi [14] = test: Antibacterial activity against Salmonella typhi assessed as zone of inhibition at 100 ug/well measured after 24 hrs by agar well diffusion method; type: functional, Salmonella enterica subsp. enterica serovar Typhi; settings: Salmonella enterica, read-out: DIZ
Candida albicans [15] = test: Antifungal activity against Candida albicans MTCC 3017 measured after 48 hrs by NCCL protocol based broth dilution method; type: functional
Salmonella typhi [16] = test: Antibacterial activity against Salmonella typhi measured after 24 hrs by NCCL protocol based broth dilution method; type: functional, Salmonella enterica subsp. enterica serovar Typhi

Row | Compound | zone of inhibition at 100 µg/disc (Streptococcus mutans [1]) [mm] | zone of inhibition at 100 µg/disc (Aspergillus fumigatus [2]) [mm] | zone of inhibition at 100 µg/disc (Staphylococcus aureus [3]) [mm] | zone of inhibition at 100 µg/disc (Klebsiella pneumoniae [4]) [mm] | MIC (Aspergillus fumigatus [5]; MTCC 343, 48 h) [µg/mL] | MIC (Salmonella paratyphi [6]; Salmonella enterica) [µg/mL] | MIC (Staphylococcus aureus [7]; MTCC 3160, 24 h) [µg/mL] | zone of inhibition at 100 µg/disc (Candida albicans [8]) [mm] | MIC (Klebsiella pneumoniae [9]; MTCC 3384, 24 h) [µg/mL] | MIC (Micrococcus luteus [10]; MTCC 106, 24 h) [µg/mL] | zone of inhibition at 100 µg/disc (Salmonella paratyphi [11]) [mm] | zone of inhibition at 100 µg/disc (Micrococcus luteus [12]) [mm] | MIC (Streptococcus mutans [13]; MTCC 497, 24 h) [µg/mL] | zone of inhibition at 100 µg/disc (Salmonella typhi [14]) [mm] | MIC (Candida albicans [15]; MTCC 3017, 48 h) [µg/mL] | MIC (Salmonella typhi [16]; Salmonella enterica) [µg/mL] | other results
1 | CC1(C)O[C@H]2O[C@@H]3COB(c4ccc(/C=N/c5ccccc5)cc4)O[C@@H]3[C@H]2O1 | 21 | 0 | 16 | 21 | 500 (≈ 1320 µM) | 500 (≈ 1320 µM) | 125 (≈ 330 µM) | 11 | 62.5 (≈ 165 µM) | 250 (≈ 659 µM) | 0 | 14 | 62.5 (≈ 165 µM) | 20 | 125 (≈ 330 µM) | 62.5 (≈ 165 µM) | –
2 | CC1(C)O[C@H]2O[C@@H]3COB(c4cccc(/N=C/c5cc(Br)ccc5O)c4)O[C@@H]3[C@H]2O1 | 21 | 0 | 13 | 21 | 250 (≈ 527 µM) | 62.5 (≈ 132 µM) | 125 (≈ 264 µM) | 18 | 62.5 (≈ 132 µM) | 31.2 (≈ 65.9 µM) | 14 | 22 | 62.5 (≈ 132 µM) | 24 | 62.5 (≈ 132 µM) | 31.2 (≈ 65.9 µM) | –
3 | CC1(C)O[C@H]2O[C@@H]3COB(c4ccc(/C=N/c5ccc(Br)cc5)cc4)O[C@@H]3[C@H]2O1 | 17 | 16 | 15 | 17 | 125 (≈ 273 µM) | 15.6 (≈ 34.1 µM) | 125 (≈ 273 µM) | 19 | 62.5 (≈ 136 µM) | 250 (≈ 546 µM) | 24 | 13 | 62.5 (≈ 136 µM) | 22 | 62.5 (≈ 136 µM) | 62.5 (≈ 136 µM) | –
4 | CCOc1cccc(/C=N/c2cccc(B3OC[C@H]4O[C@@H]5OC(C)(C)O[C@@H]5[C@H]4O3)c2)c1O | 16 | 21 | 0 | 12 | 62.5 (≈ 142 µM) | 250 (≈ 569 µM) | 250 (≈ 569 µM) | 18 | 125 (≈ 285 µM) | 125 (≈ 285 µM) | 14 | 15 | 125 (≈ 285 µM) | 24 | 62.5 (≈ 142 µM) | 31.2 (≈ 71.1 µM) | –
5 | O=[N+]([O-])c1ccc(O)c(/C=N/c2cccc(B(O)O)c2)c1 | 9 | 0 | 8 | 0 | 500 (≈ 1750 µM) | 500 (≈ 1750 µM) | 500 (≈ 1750 µM) | 0 | 500 (≈ 1750 µM) | 250 (≈ 874 µM) | 0 | 0 | 125 (≈ 437 µM) | 11 | 500 (≈ 1750 µM) | 500 (≈ 1750 µM) | –
6 | CC1(C)O[C@H]2O[C@@H]3COC(c4cccc(C=O)c4)O[C@@H]3[C@H]2O1 (stereo partly specified) | 0 | 0 | 0 | 0 | – | – | – | 0 | – | – | 0 | 0 | – | 0 | – | – | MIC (Aspergillus fumigatus [5]): inactive; MIC (Salmonella paratyphi [6]; Salmonella enterica subsp. enterica serovar Paratyphi A): inactive; MIC (Staphylococcus aureus [7]): inactive; MIC (Klebsiella pneumoniae [9]): inactive; MIC (Micrococcus luteus [10]): inactive; MIC (Streptococcus mutans [13]): inactive; MIC (Candida albicans [15]): inactive; MIC (Salmonella typhi [16]; Salmonella enterica subsp. enterica serovar Typhi): inactive
